Legend:
[1] = molecular target: T1, human recombinant ghrelin receptor (GHS-R1a) (Homo sapiens, UniProt Q92847); experiment: Calcium assay, CHO-K1 cells expressing hGHS-R1a (Fluo-4); type: cell-based; details: for Emax: CHO-K1, relative to the Emax induced by MK-0677 (defined as 100%), read-out: hGHS-R1a Ca assay Emax/%
T1 construct: host or cells: CHO-K1
Protocol: (§1) Chinese hamster ovary (CHO-K1) cells expressing human recombinant ghrelin receptor (GHS-R1a) were purchased from Euroscreen (ES-410-C) and propagated in UltraCHO medium containing glutamine and supplemented with 1% heat inactivated foetal calf serum (FCS), 100 U/ml penicillin, 100 mg/l streptomycin and 0.8 g/l geneticin. Cells were sub-cultured twice a week with a 1:10 dilution. For passaging, cells were washed with 1× DPBS without calcium and magnesium, trypsinised for 10 min with 0.05% Trypsin/EDTA and resuspended in cell culture medium.
Cells were diluted to achieve 1×10^6 cells/ml, seeded in 384-well black clear bottom CellBind plates at 25000 cells/well (25u1) and incubated overnight at 37° C./5% CO2 Cells were expected to be 85-90% confluent on the day of assay (checked under the microscope) to ensure a high quality assay. Media was manually removed and 40 μl of loading solution containing probenecid and Fluo-4 no wash dye (a calcium indicator, Invitrogen F36206) were added to each well. After 30 min at 37° C. followed by another 30 min at RT, cpds were added to the wells. To generate a dose response up to 30 μM, 10 mM compound stocks in 100% (v/v) DMSO were firstly diluted in 50% (v/v) DMSO. Then, serial dilutions aimed at a full logarithmic dose responses (8 point) were performed in assay buffer [1×HBSS, 20 mM Hepes, 0.1% (w/v) BSA] to give 2.5% (v/v) DMSO and 5× final compound concentrations. The final assay DMSO concentration was 0.5% (v/v). After loading the cells with Fluo-4 containing solution, plates were read on a CeIlLux instrument (Perkin Elmer). A protocol set up to add 10 μl of 5× compound and to read the plate for 60sec after adding the compound at 17th sec was used. Fluorescence excitation took place at 494 nm and emission at 516 nm. EC50 values of agonists were calculated by fitting the percent stimulation over background [(Max-Min)/Min] using the nonlinear logistic function of the Prism 5 software (GraphPad, USA).

[2] = tested on: rat fundus; experiment: Rat fundus contractility assay (EFS-induced contraction of muscle strips); details: for EC50: increase of EFS-induced contraction, mean of preparations from at least 3 animals; for Emax / Emax/%: relative to the response to ghrelin (100 nM), defined as 100%
Protocol: Male Sprague Dawley rats (180-250 g) were culled by cervical dislocation and the fundus was removed. Each fundus was placed on a Krebs Henseleit (KH) buffer soaked dissection dish and cut along the long curvature to form a flattened sheet that was pinned in each corner. Four adjacent longitudinal strips (10×3 mm) were cut and the mucosa removed by sharp dissection. Each muscle strip was mounted in a 10 ml organ bath containing oxygenated KH at 37° C. Each strip was connected to an isometric force transducer, calibrated initially using a 5 g weight. The signal (g tension) was amplified and responses recorded by a Powerlab data capture system, connected to a computer running Labchart software (version 5.0). Tissues were placed under 1 g tension for an equilibration period of 30 min or until the baseline tension had stabilised. Carbachol (CCh, 100 nM) was then administered to establish the maximum contractile response of each preparation. Tissues were washed thoroughly and left for 30 min to re-equilibrate. Next, the muscle strips underwent electrical field stimulation (EFS). Maximal EFS pulse trains of 12V, 5 Hz, 0.1 msec pulse width, for 2 sec every 60 sec were applied until consistent electrically-stimulated phasic contractions were recorded. The voltage was then reduced in 1V increments until a consistent submaximal (EC50-75) EFS response was observed. Ghrelin (100 nM) was administered and left until a maximum response was obtained. Tissues were then washed thoroughly and left for 30 min. Once the EFS-induced contraction had re-stabilised, cumulative additions (10 nM-10 μM) of each test compound were administered. Individual responses were calculated by determining the peak of the EFS-induced contraction minus the baseline. […] The mean EC50 value for compounds was generated from data obtained on stomach preparations from at least 3 different animals.

[3] = molecular target: T1, human recombinant ghrelin receptor (GHS-R1a); experiment: cAMP assay (HTRF), CHO-hGHS-R1a cells; type: cell-based; details: relative to the ghrelin response (defined as 100%)
Protocol: as §1
The Homogeneous Time-Resolved Fluorescence (HTRF) cAMP dynamic 2 kit (Cisbio International, France) was used as follows. CHO-hGHS—R1a or CHO-rGHS—R1a cells were seeded in a volume of 25 μl culture media at 10,000 cells/well (400,000 cells/ml) in Greiner white 384-well high volume plates and incubated overnight (18-24 h) at 37° C./5% CO2. Then, media was removed and 6 μl assay buffer [HBSS, 10 mM Hepes, 0.2% (w/v) BSA, 1.7 mM IBMX, (pH7.4)] were added to the wells. To generate a dose response up to 30 μM, 10 mM compound stocks in 100% (v/v) DMSO were firstly diluted in 50% (v/v) DMSO followed by a further dilution into assay buffer. Then, 4 μl of 2.5× compound (dose response as 9 point log serial dilution in assay buffer from 30 μM as maximum concentration) were added to each well achieving a final DMSO assay concentration of 0.8% (v/v). 0.1 μM forskolin was added as positive control. After 30 min (rGHS—R1a cell line) or 60 min (hGHS—R1a cell line) incubation at 37° C./5% CO2, 5 μl of cAMP-d2 and 5 μl of anti-cAMP antibody-cryptate, (both made in lysis buffer), were added to the plate followed by 1 h incubation at RT. During this time, cAMP produced by the cells competed with cAMP-d2 for the anti-cAMP antibody-cryptate molecule. Then, the plate was read on the Pherastar instrument (BMG, Germany) at two different emission wavelengths ([…]). Increasing levels of endogenous cAMP produced by cells could be followed by a decrease of FRET fluorescent signal and viceversa. Values represented by a change in arbitrary fluorescence ratios (665/620) were converted into cAMP concentrations by using a standard curve, the reagents for which were supplied with the kit. EC50 values of agonists were calculated using the nonlinear logistic function of the Prism 5 software (GraphPad, USA). Emax were expressed as relative values of the ghrelin response, which was defined as 100%.

T1 sequence (Q92847 whole entry): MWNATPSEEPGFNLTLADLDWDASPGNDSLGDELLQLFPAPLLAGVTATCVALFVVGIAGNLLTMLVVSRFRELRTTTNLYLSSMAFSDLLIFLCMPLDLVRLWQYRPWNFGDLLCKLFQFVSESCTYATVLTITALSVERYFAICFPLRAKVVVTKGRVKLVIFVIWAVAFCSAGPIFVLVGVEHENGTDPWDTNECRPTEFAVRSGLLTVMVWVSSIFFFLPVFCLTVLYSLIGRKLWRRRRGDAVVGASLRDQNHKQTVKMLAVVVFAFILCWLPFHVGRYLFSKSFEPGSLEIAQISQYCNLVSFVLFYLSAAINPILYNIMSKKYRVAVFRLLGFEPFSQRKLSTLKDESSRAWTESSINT

| SMILES | Emax [1] | EC50 ([2]; Rattus norvegicus) | Emax ([2]; Rattus norvegicus) | Emax [3] | EC50 [2] | Emax/% [2] | hGHS-R1a Ca assay Emax/% ([1]; relative to the Emax induced by MK-0677 (defined as 100%)) | hGHS-R1a cAMP assay Emax/% [3] |
| --- | --- | --- | --- | --- | --- | --- | --- | --- |
| CN1C[C@@H](c2ccc(F)cc2)[C@@]2(CCCN(C(=O)[C@@H](COCc3ccccc3)NC(=O)C(C)(C)N)C2)C1=O [Example 1.2, 2-Amino-N-((2R)-3-(benzyloxy)-1-((4S,5R)-4-(4-fluorophenyl)-2-methyl-1-oxo-2,7-diazaspiro[4.5]decan-7-yl)-1-oxopropan-2-yl)-2-methylpropanamide] | 89% | 7.5 nM | 100% | 197% | – | – | – | – |
| CN1C[C@@H](c2ccccc2)[C@@]2(CCCN(C(=O)[C@@H](COCc3ccccc3)NC(=O)C(C)(C)N)C2)C1=O (single isomer, unassigned) [Example 1.0(ii)] | 100% | 13 nM | 66% | 141% | – | – | – | – |
| CN1CC(c2ccccc2)C2(CCCN(C(=O)[C@@H](CCCc3ccccc3)NC(=O)C(C)(C)N)C2)C1=O (single isomer, unassigned) [Example 1.32] | 103% | – | – | 176% | 19 nM | 109% | – | – |
| CN(C)C(=O)CN1CC(c2ccccc2)C2(CCCN(C(=O)[C@@H](COCc3ccccc3)NC(=O)C(C)(C)N)C2)C1=O (single isomer, unassigned) [Example 1.16] | 101% | 13 nM | 124% | 210% | – | – | – | – |
| CNC(C)(C)C(=O)N[C@H](COCc1ccccc1)C(=O)N1CCCC2(C1)C(=O)N(C)CC2c1ccccc1 (single isomer, unassigned) [Example 1.17] | 107% | 137 nM | 113% | 124% | – | – | – | – |
| CN1C[C@H](c2ccccc2)[C@]2(CCCN(C(=O)[C@@H](COCc3ccccc3)NC(=O)C(C)(C)N)C2)C1=O (single isomer, unassigned) [Example 1.0(i)] | 97% | 1700 nM | 104% | 130% | – | – | – | – |
| CN1C(=O)C2(CCCN(C(=O)[C@@H](COCc3ccccc3)NC(=O)C(C)(C)N)C2)C1c1ccccc1 (single isomer, unassigned) [Example 2.0(ii)] | 99% | – | 63% | 193% | 17 nM | – | – | – |
| CN1CC(c2ccccc2)C2(CCCN(C(=O)[C@@H](COCc3ccccc3)NC(=O)C(C)(C)N)C2)C1=O (single isomer, unassigned) [Example 1.21] | – | – | – | – | 84 nM | 81% | 105% | 122% |
| CN1CC(c2ccccc2)C2(CCCN(C(=O)[C@@H](COCc3ccccc3)NC(=O)C(C)(N)C(F)(F)F)C2)C1=O (stereo partly drawn) [Example 1.73, 2-amino-N-((2R)-3-(benzyloxy)-1-(2-methyl-1-oxo-4-phenyl-2,7-diazaspiro[4.5]decan-7-yl)-1-oxopropan-2-yl)-3,3,3-trifluoro-2-methylpropanamide] | 79% | – | – | 1% | – | – | – | – |
| CC(C)N1CC(c2ccc(F)cc2)C2(CCCN(C(=O)[C@@H](Cc3cn(C)c4ccccc34)NC(=O)C(C)(C)N)C2)C1=O (single isomer, unassigned) [Example 1.15] | 112% | 36 nM | 123% | 331% | – | – | – | – |
| Cc1ccc(COC[C@@H](NC(=O)C(C)(C)N)C(=O)N2CCCC3(C2)C(=O)N(C)CC3c2ccc(F)cc2)cc1 (single isomer, unassigned) [Example 1.29] | 102% | 48 nM | 100% | 243% | – | – | – | – |
| CC(C)(C)CN1CC(c2ccccc2)C2(CCCN(C(=O)[C@@H](COCc3ccccc3)NC(=O)C(C)(C)N)C2)C1=O (single isomer, unassigned) [Example 1.40] | 86% | 59 nM | 117% | 164% | – | – | – | – |
| COc1ccc(C2CN(C)C(=O)C23CCCN(C(=O)[C@@H](COCc2ccccc2)NC(=O)C(C)(C)N)C3)cc1 (stereo partly drawn) [Example 1.74, 2-amino-N-((2R)-3-(benzyloxy)-1-(4-(4-methoxyphenyl)-2-methyl-1-oxo-2,7-diazaspiro[4.5]decan-7-yl)-1-oxopropan-2-yl)-2-methylpropanamide] | 103% | – | – | 123% | – | – | – | – |
| Cc1ccc(COC[C@@H](NC(=O)C(C)(C)N)C(=O)N2CCCC3(C2)C(=O)N(C)CC3c2ccc(F)cc2)cc1 (stereo partly drawn) [Example 1.72, 2-amino-N-((2R)-1-(4-(4-fluorophenyl)-2-methyl-1-oxo-2,7-diazaspiro[4.5]decan-7-yl)-3-((4-methylbenzyl)oxy)-1-oxopropan-2-yl)-2-methylpropanamide] | 110% | – | – | 147% | – | – | – | – |
| CC(C)(C)CN1CC(c2ccccc2)C2(CCCN(C(=O)[C@@H](COCc3ccccc3)NC(=O)C(C)(C)N)C2)C1=O (stereo partly drawn) [Example 1.75, 2-amino-N-((2R)-3-(benzyloxy)-1-(2-neopentyl-1-oxo-4-phenyl-2,7-diazaspiro[4.5]decan-7-yl)-1-oxopropan-2-yl)-2-methylpropanamide] | 87% | – | – | 176% | – | – | – | – |
| CN1CC(c2ccc(F)cc2)C2(CCCN(C(=O)[C@@H](COCc3ccc(Cl)cc3)NC(=O)C(C)(C)N)C2)C1=O (single isomer, unassigned) [Example 1.57] | 84% | – | – | 173% | – | – | – | – |
| Cc1ccc(C2CN(C)C(=O)C23CCCN(C(=O)[C@@H](COCc2ccccc2)NC(=O)C(C)(C)N)C3)cc1 (single isomer, unassigned) [Example 1.53] | 89% | – | – | 212% | – | – | – | – |
| CN1N=C(c2ccccc2)C2(CCCN(C(=O)[C@@H](COCc3ccccc3)NC(=O)C(C)(C)N)C2)C1=O (mixture of isomers) [Example 1.47, 2-Amino-N-[(R)-1-benzyloxymetnyl-2-(3-methyl-4-oxo-1-phenyl-2,3,7-triaza-spiro[4.5]dec-1-en-7-yl)-2-oxo-ethyl]-2-methyl-propionamide] | 104% | – | – | 145% | – | – | – | – |

Reference: patent publication US20130296358A1, “3-SPIROCYCLIC PIPERIDINE DERIVATIVES AS GHRELIN RECEPTOR AGONISTS” (priority 2012, published 2013)
